PubChem BioAssay AID342 (DTP/NCI, 2004)
Where “and” joins values, the source holds several entries; their conditions need not be identical. Equal entries are not always repeated.

System: Swiss mice, Sarcoma 180 sc, mean tumor weight T/C
Experiment: NCI In Vivo Anticancer Drug Screen. Data for tumor model Sarcoma 180 (subcutaneous) in Swiss mice
Conditions: endpoint: mean tumor weight, higher = larger tumour
How it was run: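 Readout is the ratio of treated-group measurement to vehicle-control measurement (T/C), based on survival or tumor size in mice carrying transplanted tumors.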

In the case of `CC(=O)Nc1ccc(/C=N/Nc2ccc([N+](=O)[O-])cn2)cc1`, the T/C (dose: 45.0 mg/kg/injection, schedule: Q01DX007 (ip), vehicle: carboxymethylcellulose (CMC)) is reported as 62 % of control, the T/C (dose: 67.0 mg/kg/injection, schedule: Q01DX007 (ip), vehicle: carboxymethylcellulose (CMC)) is reported as 79 % of control and the T/C (dose: 83.3 mg/kg/injection, schedule: Q#A X014 (ip), vehicle: carboxymethylcellulose (CMC)) is reported as 77 % of control. For the same molecule, the T/C (dose: 83.3 mg/kg/injection, schedule: Q#A X014 (ip), vehicle: methylcellulose (MC)) was 61 % of control, the T/C (dose: 125.0 mg/kg/injection, schedule: Q#A X014 (ip), vehicle: carboxymethylcellulose (CMC)) was 22 % of control and the T/C (dose: 187.5 mg/kg/injection, schedule: Q#A X014 (ip), vehicle: carboxymethylcellulose (CMC)) was 48 % of control. For the same molecule, the T/C (dose: 281.25 mg/kg/injection, schedule: Q#A X014 (ip), vehicle: carboxymethylcellulose (CMC)) was 47 % of control.
`Nc1nc(Cl)ncc1F` was tested, and the T/C (dose: 25.0 mg/kg/injection, schedule: Q01DX007 (ip), vehicle: saline) was 101 % of control, the T/C (dose: 50.0 mg/kg/injection, schedule: Q01DX007 (ip), vehicle: saline) was 83 % of control and the T/C (dose: 100.0 mg/kg/injection, schedule: Q01DX007 (ip), vehicle: saline) was 92 % of control.
`O=C(Nc1ccc(C2=NCCN2)cc1)c1cccc(C(=O)Nc2ccc(C3=NCCN3)cc2)c1` was tested, and the T/C (dose: 1.2 mg/kg/injection, schedule: Q01DX007 (ip), vehicle: carboxymethylcellulose (CMC)) was 167 % of control, the T/C (dose: 4.7 mg/kg/injection, schedule: Q01DX007 (ip), vehicle: carboxymethylcellulose (CMC)) was 109 % of control and the T/C (dose: 9.4 mg/kg/injection, schedule: Q01DX007 (ip), vehicle: carboxymethylcellulose (CMC)) was 117 % of control. The T/C (dose: 60.0 mg/kg/injection, schedule: Q01DX007 (ip), vehicle: carboxymethylcellulose (CMC)) was 163 % of control, the T/C (dose: 120.0 mg/kg/injection, schedule: Q01DX007 (ip), vehicle: carboxymethylcellulose (CMC)) was 98 % of control and the T/C (dose: 240.0 mg/kg/injection, schedule: Q01DX007 (ip), vehicle: carboxymethylcellulose (CMC)) was 79 % of control.
`COC1=C(N)C(=O)c2nc(-c3nc(C(=O)O)c(C)c(-c4ccc(OC)c(OC)c4O)c3N)ccc2C1=O` was tested, and the T/C (dose: 0.02 mg/kg/injection, schedule: Q01DX007 (ip), vehicle: water) was 66 % of control, the T/C (dose: 0.05 mg/kg/injection, schedule: Q01DX007 (ip), vehicle: water) was 70 % of control and the T/C (dose: 0.05 mg/kg/injection, schedule: Q#A X014 (ip), vehicle: alkali diluted with CMC) was 61 % of control. For the same molecule, the T/C (dose: 0.09 mg/kg/injection, schedule: Q01DX007 (ip), vehicle: other) was 37 % of control, the T/C (dose: 0.1 mg/kg/injection, schedule: Q01DX007 (ip), vehicle: water) was 53 % of control and 54 % of control and the T/C (dose: 0.1 mg/kg/injection, schedule: Q#A X014 (ip), vehicle: alkali diluted with CMC) was 52 % of control. The T/C (dose: 0.13 mg/kg/injection, schedule: Q01DX007 (ip), vehicle: other) was 83 % of control, the T/C (dose: 0.2 mg/kg/injection, schedule: Q01DX007 (ip), vehicle: other) was 73 % of control and the T/C (dose: 0.2 mg/kg/injection, schedule: Q01DX007 (ip), vehicle: water) was 48 % of control. For the same molecule, the T/C (dose: 0.2 mg/kg/injection, schedule: Q#A X014 (ip), vehicle: alkali diluted with CMC) was 65 % of control, the T/C (dose: 0.25 mg/kg/injection, schedule: Q01DX007 (ip), vehicle: water) was 27 % of control and the T/C (dose: 0.3 mg/kg/injection, schedule: Q01DX007 (ip), vehicle: other) was 54 % of control.
`CN(C)[C@@H]1C(=O)C(C(=O)NCNc2nc(=S)c3[nH]cnc3[nH]2)=C(O)[C@@]2(O)C(=O)C3=C(O)c4c(O)cccc4[C@@](C)(O)[C@H]3C[C@@H]12` was tested, and the T/C (dose: 25.0 mg/kg/injection, schedule: Q01DX007 (ip), vehicle: carboxymethylcellulose (CMC)) was 26 % of control and the T/C (dose: 50.0 mg/kg/injection, schedule: Q01DX007 (ip), vehicle: carboxymethylcellulose (CMC)) was 15 % of control.
With `CN(CC#N)/N=N/c1nc[nH]c1C(N)=O` the T/C (dose: 225.0 mg/kg/injection, schedule: Q01DX007 (ip), vehicle: carboxymethylcellulose (CMC)) was 38 % of control.
